Assay results from patent US20250101041A1, “POSITIVE ALLOSTERIC MODULATORS OF THE MUSCARINIC ACETYLCHOLINE RECEPTOR M4” (Vanderbilt University, priority 2022, published 2025).

Target: T1, human mAChR M4 (Homo sapiens, UniProt P08173)
T1 construct: expressed in transfected cells; host or cells: CHO-K1 (American Type Culture Collection), stably expressing hM4 and Gqi5
T1 sequence (P08173 1-479): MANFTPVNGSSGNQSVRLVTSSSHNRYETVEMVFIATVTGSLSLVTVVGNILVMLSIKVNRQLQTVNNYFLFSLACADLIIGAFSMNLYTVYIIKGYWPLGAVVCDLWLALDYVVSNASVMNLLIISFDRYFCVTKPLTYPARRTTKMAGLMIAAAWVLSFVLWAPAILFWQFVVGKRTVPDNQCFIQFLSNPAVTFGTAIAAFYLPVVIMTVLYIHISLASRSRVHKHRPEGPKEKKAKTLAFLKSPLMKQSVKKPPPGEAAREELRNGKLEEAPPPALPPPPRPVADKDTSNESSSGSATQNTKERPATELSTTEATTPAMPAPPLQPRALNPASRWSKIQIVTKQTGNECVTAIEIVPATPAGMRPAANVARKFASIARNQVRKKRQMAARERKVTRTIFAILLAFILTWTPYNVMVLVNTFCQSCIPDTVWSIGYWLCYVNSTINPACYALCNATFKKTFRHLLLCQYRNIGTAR
Experiment: mAChR M4 cell-based functional assay: calcium mobilization (Fluo-4, FDSS), potentiation of EC20 acetylcholine response in hM4-Gqi5 CHO-K1 cells
Parameters: Emax: dose or concentration left out as unconfirmed
Conditions: for Emax at 30 µM: CHO-K1, % ACh maximum at 30 μM; for Emax at 30 µM / EC50: human M4; for EC50: potentiation of EC20 acetylcholine response, calcium mobilization
Protocol: Human and rat M4 cDNAs, along with the chimeric G protein Gqi5, were transfected into Chinese hamster ovary (CHO-K1) cells purchased from the American Type Culture Collection using Lipofectamine2000. hM4-Gqi5 cells were grown in Ham's F-12 medium containing 10% heat-inactivated fetal bovine serum (FBS), 20 mM HEPES, 50 μg/mL G418 sulfate, and 500 μg/mL Hygromycin B. rM4-Gqi5 cells were grown in DMEM containing 10% heat-inactivated FBS, 20 mM HEPES, 400 μg/mL G418 sulfate, and 500 μg/mL Hygromycin B.
For high throughput measurement of agonist-evoked increases in intracellular calcium, CHO-K1 cells stably expressing muscarinic receptors were plated in growth medium lacking G418 and hygromycin at 15,000 cells/20 μL/well in Greiner 384-well black-walled, tissue culture (TC)-treated, clear-bottom plates (VWR). Cells were incubated overnight at 37° C. and 5% CO2. The next day, cells were washed using an ELX 405 (BioTek) with assay buffer; the final volume was then aspirated to 20 μL. Next, 20 μL of a […] of Fluo-4/acetoxymethyl ester (Invitrogen, Carlsbad, CA), prepared as a 2.3 mM stock in DMSO and mixed in a 1:1 ratio with 10% (w/v) Pluronic F-127 and diluted in assay buffer, was added to the wells and the cell plates were incubated for 50 min at 37° C. and 5% CO2. Dye was removed by washing with the ELX 405 and the final volume was aspirated to 20 μL. Compound master plates were formatted in an 11 point concentration-response curve (CRC) format (1:3 dilutions) in 100% DMSO with a starting concentration of 10 mM using a BRAVO liquid handler (Agilent). Test compound CRCs were then transferred to daughter plates (240 nL) using the Echo acoustic plate reformatter (Labcyte, Sunnyvale, CA) and then diluted into assay buffer (40 μL) to a 2× stock using a Thermo Fisher Combi (Thermo Fisher Scientific, Waltham, MA).
Calcium flux was measured using the Functional Drug Screening System (FDSS) 6000 or 7000 (Hamamatsu Corporation, Tokyo, Japan) as an increase in the fluorescent static ratio. Compounds were applied to cells (20 μL, 2X) using the automated system of the FDSS at 2-4 seconds into the protocol and the data were collected at 1 Hz. At 144 seconds, 10 μL of an EC20 concentration of the muscarinic receptor agonist acetylcholine was added (5×), followed by the addition of 12 μL of an […] concentration of acetylcholine at the 230 second time point (5×). Agonist activity was analyzed as a concentration-dependent increase in calcium mobilization upon compound addition. Positive allosteric modulator activity was analyzed as a concentration-dependent increase in the EC20 acetylcholine response. Antagonist activity was analyzed as a concentration-dependent decrease in the EC20 acetylcholine response. Concentration-response curves were generated using a four-parameter logistical equation in XLFit curve fitting software (IDBS, Bridgewater, NJ) for Excel (Microsoft, Redmond, WA) or Prism (GraphPad Software, Inc., San Diego, CA).
Compounds were synthesized as described above. Activity (EC50 and Emax) was determined in the mAChR M4 cell-based functional assay as described above and the data are shown in Table 4. The compound number corresponds to the compound numbers used in Tables 1-3.

Row | SMILES | Emax at 30 µM [%] | EC50 [nM] | Emax (CHO-K1) [%]
1 | C=Cc1cnc2cc(C)c(N3CCc4ncc(C(F)(F)F)cc4C3)nn2c1=O [Compound 1-22, 8-Methyl-7-(3-(trifluoromethyl)-7,8-dihydro-1,6-naphthyridin-6(5H)-yl)-3-vinyl-4H-pyrimido[1,2-b]pyridazin-4-one] | – | 246 | 73
2 | CCc1cnc2cc(C)c(N3CCc4ncc(C(F)(F)F)cc4C3)nn2c1=O [Compound 1-24, 3-Ethyl-8-methyl-7-(3-(trifluoromethyl)-7,8-dihydro-1,6-naphthyridin-6(5H)-yl)-4H-pyrimido[1,2-b]pyridazin-4-one] | 75 | 309 | –
3 | Cc1cc2nc(C)c(C)c(=O)n2nc1N1CCc2ncc(C(F)(F)F)cc2C1 [Compound 1-25, 2,3,8-trimethyl-7-(3-(trifluoromethyl)-7,8-dihydro-1,6-naphthyridin-6(5H)-yl)-4H-pyrimido[1,2-b]pyridazin-4-one] | 81 | 254 | –
4 | Cc1cc2nc(C(F)F)cc(=O)n2nc1N1CCc2ncc(C(F)(F)F)cc2C1 [Compound 1-26, 2-(difluoromethyl)-8-methyl-7-(3-(trifluoromethyl)-7,8-dihydro-1,6-naphthyridin-6(5H)-yl)-4H-pyrimido[1,2-b]pyridazin-4-one] | 74 | 141 | –
5 | Cc1cc2nc(C3CC3)cc(=O)n2nc1N1CCc2ncc(C(F)(F)F)cc2C1 [Compound 1-27, 2-cyclopropyl-8-methyl-7-(3-(trifluoromethyl)-7,8-dihydro-1,6-naphthyridin-6(5H)-yl)-4H-pyrimido[1,2-b]pyridazin-4-one] | 76 | 38 | –
6 | Cc1cc2nc(C)c(Cl)c(=O)n2nc1N1CCc2ncc(C(F)(F)F)cc2C1 [Compound 1-28, 3-chloro-2,8-dimethyl-7-(3-(trifluoromethyl)-7,8-dihydro-1,6-naphthyridin-6(5H)-yl)-4H-pyrimido[1,2-b]pyridazin-4-one] | 86 | 40 | –
7 | Cc1ccc(-c2cnc3c(c2)CN(c2nn4c(=O)cc(C)nc4cc2C)CC3)cn1 [Compound 1-30, 2,8-dimethyl-7-(3-(6-methylpyridin-3-yl)-7,8-dihydro-1,6-naphthyridin-6(5H)-yl)-4H-pyrimido[1,2-b]pyridazin-4-one] | 69 | 127 | –
8 | Cc1cc(=O)n2nc(N3CCc4ncc(-c5cnc(C)s5)cc4C3)c(C)cc2n1 [Compound 1-31, 2,8-dimethyl-7-(3-(2-methylthiazol-5-yl)-7,8-dihydro-1,6-naphthyridin-6(5H)-yl)-4H-pyrimido[1,2-b]pyridazin-4-one] | 83 | 104 | –
9 | Cc1cc(=O)n2nc(N3CCc4ncc(C(F)(F)F)cc4C3)c(C)c(C)c2n1 [Compound 1-33, 2,8,9-trimethyl-7-(3-(trifluoromethyl)-7,8-dihydro-1,6-naphthyridin-6(5H)-yl)-4H-pyrimido[1,2-b]pyridazin-4-one] | 77 | 64 | –
10 | Cc1cc2nc(C(F)F)cc(=O)n2nc1N1CCc2ncc(-c3cnn(C)c3)cc2C1 [Compound 1-35, 2-(Difluoromethyl)-8-methyl-7-(3-(1-methyl-1H-pyrazol-4-yl)-7,8-dihydro-1,6-naphthyridin-6(5H)-yl)-4H-pyrimido[1,2-b]pyridazin-4-one] | 92 | 80 | –
11 | Cc1cc2nccc(=O)n2nc1N1CCc2ncc(-c3ccn(C)c(=O)c3)cc2C1 [Compound 1-37, 8-methyl-7-(3-(1-methyl-2-oxo-1,2-dihydropyridin-4-yl)-7,8-dihydro-1,6-naphthyridin-6(5H)-yl)-4H-pyrimido[1,2-b]pyridazin-4-one] | 83 | 2530 | –
12 | COc1cc(-c2cnc3c(c2)CN(c2nn4c(=O)ccnc4cc2C)CC3)ccn1 [Compound 1-38, 7-(3-(2-methoxypyridin-4-yl)-7,8-dihydro-1,6-naphthyridin-6(5H)-yl)-8-methyl-4H-pyrimido[1,2-b]pyridazin-4-one] | 84 | 338 | –
13 | Cc1c(N2CCc3ncc(C(F)(F)F)cc3C2)nn2c(=O)cc(C(F)(F)F)nc2c1C [Compound 1-39, 8,9-dimethyl-2-(trifluoromethyl)-7-(3-(trifluoromethyl)-7,8-dihydro-1,6-naphthyridin-6(5H)-yl)-4H-pyrimido[1,2-b]pyridazin-4-one] | 86 | 206 | –
14 | Cc1c(N2CCc3ncc(C(F)(F)F)cc3C2)nn2c(=O)cc(C(F)F)nc2c1C [Compound 1-40, 2-(difluoromethyl)-8,9-dimethyl-7-(3-(trifluoromethyl)-7,8-dihydro-1,6-naphthyridin-6(5H)-yl)-4H-pyrimido[1,2-b]pyridazin-4-one] | 93 | 38 | –

Continued by falling EC50, values first:

Row | Emax at 30 µM [%] | EC50 [nM] | SMILES | Emax (CHO-K1) [%]
15 | 83 | 430 | Cc1cc2nccc(=O)n2nc1N1CCc2ncc(-c3cccc4ncccc34)cc2C1 [Compound 1-41, 8-methyl-7-(3-(quinolin-5-yl)-7,8-dihydro-1,6-naphthyridin-6(5H)-yl)-4H-pyrimido[1,2-b]pyridazin-4-one] | –
16 | 76 | 405 | Cc1cc(=O)n2nc(N3CCc4ncc(-c5cnn(C6CC6)c5)cc4C3)c(C)cc2n1 [Compound 1-32, 7-(3-(1-cyclopropyl-1H-pyrazol-4-yl)-7,8-dihydro-1,6-naphthyridin-6(5H)-yl)-2,8-dimethyl-4H-pyrimido[1,2-b]pyridazin-4-one] | –
17 | 75 | 363 | Cc1cc2ncc(C3CCCC3)c(=O)n2nc1N1CCc2ncc(C(F)(F)F)cc2C1 [Compound 1-23, 3-Cyclopentyl-8-methyl-7-(3-(trifluoromethyl)-7,8-dihydro-1,6-naphthyridin-6(5H)-yl)-4H-pyrimido[1,2-b]pyridazin-4-one] | –
18 | 85 | 146 | Cc1cc(=O)n2nc(N3CCc4ncc(-c5ccnn5C)cc4C3)c(C)cc2n1 [Compound 1-29, 2,8-dimethyl-7-(3-(1-methyl-1H-pyrazol-5-yl)-7,8-dihydro-1,6-naphthyridin-6(5H)-yl)-4H-pyrimido[1,2-b]pyridazin-4-one] | –
19 | 75 | 136 | Cc1cc2ncc(-c3ccccc3)c(=O)n2nc1N1CCc2ncc(C(F)(F)F)cc2C1 [Compound 1-21, 8-methyl-3-phenyl-7-(3-(trifluoromethyl)-7,8-dihydro-1,6-naphthyridin-6(5H)-yl)-4H-pyrimido[1,2-b]pyridazin-4-one] | –
20 | 96 | 76 | Cc1cc2nc(C(F)F)cc(=O)n2nc1N1CCc2ncc(-c3ccnn3C)cc2C1 [Compound 1-36, 2-(difluoromethyl)-8-methyl-7-(3-(1-methyl-1H-pyrazol-5-yl)-7,8-dihydro-1,6-naphthyridin-6(5H)-yl)-4H-pyrimido[1,2-b]pyridazin-4-one] | –
21 | 90 | 73 | Cc1cc2nc(C(F)F)cc(=O)n2nc1N1CCc2ncc(-c3cn(C)nc3C)cc2C1 [Compound 1-34, 2-(difluoromethyl)-7-(3-(1,3-dimethyl-1H-pyrazol-4-yl)-7,8-dihydro-1,6-naphthyridin-6(5H)-yl)-8-methyl-4H-pyrimido[1,2-b]pyridazin-4-one] | –
